Measurements from patent publication US20260216238A1, “TETRATHIOMOLYBDIC ACID FOR USE IN TREATING COPPER METABOLISM-ASSOCIATED DISEASES OR DISORDERS (WILSON DISEASE)” (Alexion Pharmaceuticals, Inc., priority 2023, published 2026).

Test system: patients with Wilson disease (WD)
Assay: UWDRS Part III total score, functional subscale and individual items (neurological examination)
Format: in vivo, human
Details: for UWDRS Part III (0-175) change from baseline, Mean (SD) / UWDRS Part III Functional Subscale (0-10) change from baseline, Mean (SD): pooled Studies 301 and 201
Description: The UWDRS scoring system was developed specifically for the motor and movement disorders associated with chronic copper neurotoxicity in WD. Some individual items/subscales of the UWDRS Part III (arising from a chair, gait, handwriting, and speech) in addition to the UWDRS Parts I, II, and III overall, were assessed to further define the range of burdensome signs and symptoms of WD, so as to further understand the assessment of treatment effects on patients with WD. The UWDRS scores for consciousness (Part I) and abnormal neurologic examination findings (Part III) will be determined by a trained neurologist rater who is blinded to study treatment randomization. These scores were used to provide a rigorous dataset for evaluating changes from baseline.
Unified Wilson Disease Rating Scale (Parts I, II, and III): The UWDRS is a clinical rating scale designed to evaluate the neurological manifestations of WD that generally can be divided into 3 movement disorder syndromes: dystonic, ataxic, and Parkinsonian syndrome. The UWDRS comprises 3 parts: UWDRS Part I (level of consciousness, item 1), UWDRS Part II (a patient-reported review of daily activity items [disability], items 2 to 11), and UWDRS Part III (a detailed neurological examination, items 12 to 34).
The UWDRS Part I and Part III were assessed by a neurologist who is blinded to the treatment randomization, while UWDRS Part II may be reported to a non-blinded member of the study team by the patient, family member, or caregiver. The UWDRS has not been formally evaluated in adolescents. However, the components of Part I (level of consciousness), Part II (patient or caregiver-reported disability) and Part III (neurologic examination findings) were not fundamentally different between adults and adolescents. Patients aged 12 years and older were expected to be able to comply with UWDRS assessments.
Pooled results from all such participants will be integrated together into one timeline to allow analyses of changes in UWDRS, long-term copper control, and long-term safety laboratory data.
Endpoints (directly measured non-ceruloplasmin-bound copper [dNCC], UWDRS III (rater blinded) total and individual item scores, Clinical Global Impression-Improvement [CGI-I]) were evaluated at baseline (BL) and Week 48 (W48). Normalization (score decrease to 0), improvement (≥1 point decrease), stability (no change), or worsening (≥1 point increase) of total and individual UWDRS III item scores were evaluated at W48.

[1] = Subpopulation E (incomplete or intolerant responders), Week 48, MMRM
[2] = Subpopulation E (incomplete or intolerant responders), Week 48, TTM N=79, SoC N=38

bis-choline tetrathiomolybdate [TTM]
UWDRS Part III score change (mean) (0-48W, symptomatic patients): −2.91
UWDRS symptom: Arising from chair (BL): 85
UWDRS symptom: Arm and hand Dystonia (BL): 64
UWDRS symptom: Cervical Dystonia (BL): 74
UWDRS symptom: Chorea (BL): 90
UWDRS symptom: Facial Expression (BL): 57
UWDRS symptom: Finger Taps (BL): 44
UWDRS symptom: Finger to Nose (BL): 67
UWDRS symptom: Gait (BL): 59
UWDRS symptom: Handwriting (BL): 55
UWDRS symptom: Head Tremor (BL): 84
UWDRS symptom: Involuntary Crying (BL): 99
UWDRS symptom: Jaw Tremor (BL): 99
UWDRS symptom: Leg Ability (BL): 62
UWDRS symptom: Oculomotor (BL): 89
UWDRS symptom: Postural Arm Tremor (BL): 49
UWDRS symptom: Postural Leg Tremor (BL): 68
UWDRS symptom: Posture (BL): 67
UWDRS symptom: Pyramidal Signs (BL): 89
UWDRS symptom: RAM of Hands (BL): 48
UWDRS symptom: Rigidity (BL): 58
UWDRS symptom: Speech (BL): 44
UWDRS symptom: Stereotyped Actions (BL): 93
UWDRS symptom: Tremor at rest (BL): 75
UWDRS symptom: Wing-beating tremor (BL): 64
UWDRS-III, observed value, Mean (SD) (Baseline, N=220): 15.43 (19.833)
UWDRS Part III (0-175), Change from Baseline at 48 weeks, LSM (Study 301 Full Analysis Set): −0.60
UWDRS Part III (0-175), Change from Baseline at 48 weeks, Mean (Study 301 Full Analysis Set): −2.20
UWDRS Part III functional subscale (0-10), Change from Baseline at 48 weeks, LSM (Study 301 Full Analysis Set): 0.001
UWDRS Part III functional subscale (0-10), Change from Baseline at 48 weeks, Mean (Study 301 Full Analysis Set): −0.147
UWDRS Part III-arising from chair (0-4), Change from Baseline at 48 weeks, LSM (Study 301 Full Analysis Set): 0.0
UWDRS Part III-arising from chair (0-4), Change from Baseline at 48 weeks, Mean (Study 301 Full Analysis Set): 0.0
UWDRS Part III-gait (0-10), Change from Baseline at 48 weeks, LSM (Study 301 Full Analysis Set): 0.06
UWDRS Part III-gait (0-10), Change from Baseline at 48 weeks, Mean (Study 301 Full Analysis Set): −0.06
UWDRS Part III-handwriting (0-4), Change from Baseline at 48 weeks, LSM (Study 301 Full Analysis Set): −0.1
UWDRS Part III-handwriting (0-4), Change from Baseline at 48 weeks, Mean (Study 301 Full Analysis Set): −0.1
UWDRS Part III-speech (0-4), Change from Baseline at 48 weeks, LSM (Study 301 Full Analysis Set): 0.0
UWDRS Part III-speech (0-4), Change from Baseline at 48 weeks, Mean (Study 301 Full Analysis Set): −0.1
UWDRS Part III change from baseline, LSM [1]: −2.52
UWDRS Part III change from baseline, LSM Diff (TTM vs SoC) [1]: −0.53
UWDRS Part III change from baseline, Mean [2]: −2.64
UWDRS Part III change from baseline, Median [2]: −1.00
UWDRS Part III, Change from Baseline, Max [2]: 31.0
UWDRS Part III, Change from Baseline, Min [2]: −28.0,
UWDRS Part III, Change from Baseline, Q1 [2]: −6.00,
UWDRS Part III, Change from Baseline, Q3 [2]: 0.00
UWDRS-III change from baseline, Mean (SD) (TTM exposure 4 weeks, N=215): −0.72 (6.701)
UWDRS Part III (0-175) change from baseline, Mean (SD) (TTM exposure 4 weeks): −0.72 (6.701)
UWDRS Part III Functional Subscale (0-10) change from baseline, Mean (SD) (TTM exposure 4 weeks): −0.072 (0.6009)
UWDRS-III change from baseline, Mean (SD) (TTM exposure 12 weeks, N=204): −1.11 (7.065)
UWDRS Part III (0-175) change from baseline, Mean (SD) (TTM exposure 12 weeks): −1.11 (7.065)
UWDRS Part III Functional Subscale (0-10) change from baseline, Mean (SD) (TTM exposure 12 weeks): −0.137 (0.7864)
UWDRS-III change from baseline, Mean (SD) (TTM exposure 24 weeks, N=182): −0.97 (8.447)
UWDRS Part III (0-175) change from baseline, Mean (SD) (TTM exposure 24 weeks): −0.97 (8.447)
UWDRS Part III Functional Subscale (0-10) change from baseline, Mean (SD) (TTM exposure 24 weeks): −0.157 (0.9091)
UWDRS-III change from baseline, Mean (SD) (TTM exposure 36 weeks, N=156): −2.38 (8.581)
UWDRS Part III (0-175) change from baseline, Mean (SD) (TTM exposure 36 weeks): −2.38 (8.581)
UWDRS Part III Functional Subscale (0-10) change from baseline, Mean (SD) (TTM exposure 36 weeks): −0.286 (0.9929)
UWDRS-III change from baseline, Mean (SD) (TTM exposure 48 weeks, N=156): −3.37 (9.778)
UWDRS Part III (0-175) change from baseline, Mean (SD) (TTM exposure 48 weeks): −3.37 (9.778)
UWDRS Part III Functional Subscale (0-10) change from baseline, Mean (SD) (TTM exposure 48 weeks): −0.345 (1.0940)
UWDRS-III change from baseline, Mean (SD) (TTM exposure 60 weeks, N=141): −2.00 (6.40)
UWDRS Part III (0-175) change from baseline, Mean (SD) (TTM exposure 60 weeks): −2.00 (6.40)
UWDRS Part III Functional Subscale (0-10) change from baseline, Mean (SD) (TTM exposure 60 weeks): −0.422 (1.0814)
UWDRS-III change from baseline, Mean (SD) (TTM exposure 72 weeks, N=125): −4.93 (11.682)
UWDRS Part III (0-175) change from baseline, Mean (SD) (TTM exposure 72 weeks): −4.93 (11.682)
UWDRS Part III Functional Subscale (0-10) change from baseline, Mean (SD) (TTM exposure 72 weeks): −0.494 (1.2826)
UWDRS-III change from baseline, Mean (SD) (TTM exposure 96 weeks, N=66): −7.95 (14.078)
UWDRS Part III (0-175) change from baseline, Mean (SD) (TTM exposure 96 weeks): −7.95 (14.078)
UWDRS Part III Functional Subscale (0-10) change from baseline, Mean (SD) (TTM exposure 96 weeks): −0.900 (1.5193)
UWDRS-III change from baseline, Mean (SD) (TTM exposure 120 weeks, N=50): −8.92 (15.045)
UWDRS Part III (0-175) change from baseline, Mean (SD) (TTM exposure 120 weeks): −8.92 (15.045)
UWDRS Part III Functional Subscale (0-10) change from baseline, Mean (SD) (TTM exposure 120 weeks): −0.946 (1.7746)
UWDRS-III change from baseline, Mean (SD) (TTM exposure 144 weeks, N=42): −9.78 (15.423)
UWDRS Part III (0-175) change from baseline, Mean (SD) (TTM exposure 144 weeks): −9.78 (15.423)
